Experimental data from patent publication US9157917B2, “Applications of Indoloindole and Indoloquinoline dyes” (Biosynth AG, priority 2010, dated 2015).

Legend:
[1] = test system: various bacterial strains; assay: Nonanoate indicators in buffered peptone water in polystyrene plates; type: cell-based; conditions: 0.2 mM, polystyrene plate, 37° C., excitation 360 nm, emission 460 nm
Procedure: Buffered peptone water containing either 0.4 mM Aldol™ 495 nonanoate or 0.2 mM 4-methylumbelliferyl nonanoate was dispensed in a microtiter plate and inoculated with about 700 cfu/ml of various bacterial strains. […] An excitation wavelength of 360 nm was used for both dyes, the emission wavelength was 560 nm for the Aldol™ 495 dye and 460 nm for the 4-methylumbelliferone.

[2] = Release of dyes from precursors through heat in PP tubes containing PE pellets; type: physicochemical; conditions: PP tubes and PE pellets (emptied and flushed with water) after heating for 40 min at 90° C.
Procedure: As a further example the release of Aldol™ 470-, 495-, and 515 dyes from various Aldol™ acetate precursors through heat is given: The compounds were incubated at room temperature and at 90° C. for 40 min in PP tubes containing PE pellets. […] Whereas for all tubes at room temperature neither coloration nor fluorescence was detected, the Aldol™ acetates but not the Aldol™ galactosides were instable at 90° C. and led to fluorescence of the PP and PE host (Table 2).

E. coli [3] = assay: Fluorescence of colonies on membrane filters; type: cell-based; conditions: Naked nutrient agar, 0.4 mM, 14-16 hours at 37° C.
[4] = Stamping on LDPE film, stability to treatments; type: physicochemical
Procedure: Three pieces of felt were soaked with ethanol containing 0.5 mM of Aldol™ 470, Aldol™ 495 or Aldol™ 515 dye respectively. A stamp was pressed first on the felt then on a piece of low density polyethylene film. The film was left to dry for 15 minutes and then exposed to various treatments (Table 4).

[5] = Fluorescence of IO dyes in various hosts; type: physicochemical
Procedure: In this description various IO dyes are given as illustrative examples (Scheme I) but these examples shall not limit the invention in any way. It was discovered that IO/IQ dyes have a strong solvatochromic effect. When, for example, the 470-, 495- and 515-dyes were dissolved in a series of solvents, the fluorescence of the solution was higher the lower the polarity of the solvent was. […] It was also discovered that the fluorescence color might change with the solvent used.

[6] = Application of aqueous dye suspensions to PP tubes and PE pellets at different temperatures; type: physicochemical; conditions: for Fluorescence of PP tubes and PE pellets, comparison between dyes: 22° C., 37° C., 90° C.
Procedure: The application of dye to plastic can be improved by increasing the temperature. Aqueous suspensions of Aldol™ 470, 495, 515 and 518 dyes in PP tubes containing PE pellets were incubated at three different temperatures (22° C., 37° C., and 90° C.). The resulting fluorescence of PP tubes and PE pellets was much stronger after incubation at 90° C. for 5 hours than after 24 hours incubation at 37° C. or 22° C. Incubation at 37° C. led to more fluorescence than incubation at 22° C. Fluorescence after incubation at 22° C. was very weak, except for PE pellets incubated in the presence of Aldol™ 495 dye and Aldol™ 515 dye.

[7] = test system: phosphatase coupled goat anti rabbit antibody; assay: Dot blot on nitrocellulose membrane; type: biochemical; conditions: 0.4 mM in assay buffer pH 9.5
From the text: Western Blotting is a routine technique for protein analysis. A widely used, cost-effective and simple way for signal detection is the reaction of a chromogenic phosphatase indicator with alkaline phosphatase coupled to the secondary antibody, yielding a colored band or spot. The IO/IQ indicators offer an easy way for fluorescent and chromogenic western blotting based on the same principle as the common chromogenic western blotting, the only difference being the phosphatase indicator. […] In addition, after longer incubation the dots were also clearly identified under white light through their yellow color. Thus, IO/IQ indicators offer a way of performing chromogenic and fluorogenic blotting assay at the same time.
0.16 μg of beta-galactosidase in 4 μl of phosphate buffer was spotted on a nitrocellulose membrane. The membrane was dried for 15 min and then blocked in TBS-T (20 mM Tris-HCl, 150 mM NaCl, 0.05% Tween20, pH 7.5) with 5% BSA for one hour. Then the membrane was incubated with a rabbit anti-beta-galactosidase antibody in TBS-T/5% BSA for one hour, washed three times for 5 min in TBS-T, and incubated with a phosphatase coupled goat anti rabbit antibody in TBS-T/5% BSA for one hour. […]

E. coli [8] = assay: Peptone broth culture in tubes
[9] = target: E. coli beta-galactosidase (Escherichia coli, UniProt P00722)
E. coli beta-galactosidase, sequence (P00722 2-1024): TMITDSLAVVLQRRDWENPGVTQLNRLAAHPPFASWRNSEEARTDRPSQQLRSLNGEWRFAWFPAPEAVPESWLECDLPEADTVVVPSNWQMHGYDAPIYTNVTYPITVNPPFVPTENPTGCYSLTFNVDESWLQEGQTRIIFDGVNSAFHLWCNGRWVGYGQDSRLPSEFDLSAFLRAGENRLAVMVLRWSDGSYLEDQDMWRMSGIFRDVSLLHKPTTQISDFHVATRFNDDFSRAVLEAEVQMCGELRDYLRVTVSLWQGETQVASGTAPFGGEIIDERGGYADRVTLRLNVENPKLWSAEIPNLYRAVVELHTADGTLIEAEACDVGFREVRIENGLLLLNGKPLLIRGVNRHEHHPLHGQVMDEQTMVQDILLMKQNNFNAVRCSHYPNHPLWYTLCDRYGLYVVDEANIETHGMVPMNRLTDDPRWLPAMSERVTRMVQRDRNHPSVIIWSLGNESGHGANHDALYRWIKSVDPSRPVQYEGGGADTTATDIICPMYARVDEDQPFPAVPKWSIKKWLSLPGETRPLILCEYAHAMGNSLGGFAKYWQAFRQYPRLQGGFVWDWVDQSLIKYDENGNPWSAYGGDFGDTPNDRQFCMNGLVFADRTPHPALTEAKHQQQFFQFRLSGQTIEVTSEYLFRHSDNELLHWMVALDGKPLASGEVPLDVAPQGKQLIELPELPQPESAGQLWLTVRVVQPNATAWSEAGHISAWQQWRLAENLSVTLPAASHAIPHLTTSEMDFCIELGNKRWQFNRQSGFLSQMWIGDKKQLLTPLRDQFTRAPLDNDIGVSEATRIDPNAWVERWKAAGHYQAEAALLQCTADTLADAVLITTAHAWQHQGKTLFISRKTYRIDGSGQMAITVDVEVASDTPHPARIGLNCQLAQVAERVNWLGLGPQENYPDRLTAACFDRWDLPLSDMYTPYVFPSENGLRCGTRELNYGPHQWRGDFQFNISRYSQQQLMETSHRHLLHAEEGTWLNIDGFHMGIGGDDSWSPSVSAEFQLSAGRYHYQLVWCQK
Procedure: 100 mM sodium phosphate buffer (pH 7.3) containing 1 mM MgCl2 and 0.5 mM Aldol™ 495 beta-D-galactoside, was distributed into glass, polystyrene and polypropylene tubes (two of each). Purified E. coli beta-galactosidase was added to half of the tubes, the other half serving as negative controls.

S. enteritidis [10] = assay: Peptone broth culture in tubes
[11] = Excitation and emission spectra of dye in polypropylene; type: physicochemical; conditions: in polypropylene microtiter plate
Procedure: The excitation and emission spectra of the Aldol™ 495 dye in PP were measured in a standard plate reader using a polypropylene microtiter plate that has been incubated with broth containing Aldol™ 495 beta-D-galactoside and an E. coli culture. […] The optimal excitation is at 310 nm (FIG. 1).

E. coli [12] = assay: Cultures with paraffin oil overlay
S. enteritidis [13] = assay: Cultures with paraffin oil overlay
[14] = paraffin oil overlay 0 μl, 16 h
[15] = paraffin oil overlay 0 μl, 21 h
[16] = paraffin oil overlay 0 μl, 40 h
[17] = paraffin oil overlay 50 μl, 16 h
[18] = paraffin oil overlay 50 μl, 21 h
[19] = paraffin oil overlay 50 μl, 40 h
[20] = paraffin oil overlay 300 μl, 16 h
[21] = paraffin oil overlay 300 μl, 21 h
[22] = paraffin oil overlay 300 μl, 40 h

CCCCCCCCC(=O)Oc1ccc2c(C)cc(=O)oc2c1 [4-methylumbelliferyl nonanoate, reference compound]
Fluorescence of C9 esterase negative strains and sterile control [1]: strong fluorescence

COc1ccc(C(=O)c2ccccc2-n2cc(OC(C)=O)c3ccccc32)c(OC)c1 [Aldol ™ 470 acetate]
Color of tube [2]: Light yellow

CC(=O)Oc1cn(-c2ccccc2C(=O)c2cccn2C)c2cc(Cl)ccc12 [Aldol ™ 495 acetate]
Color of tube [2]: Very light green

CC(=O)Oc1cn(-c2ccccc2C(=O)c2ccc(N(C)C)cc2)c2ccccc12 [Aldol ™ 515 acetate]
Color of tube [2]: Very light orange

COc1ccc(C(=O)c2ccccc2-n2cc(NC(=O)[C@H](C)N)c3ccccc32)c(OC)c1 [Aldol™ 470 L-alanine amide]
Fluorescence of E. coli colonies (E. coli [3]): No fluorescence

COc1ccc(C(=O)c2ccccc2-n2cc(O[C@@H]3O[C@H](CO)[C@H](O)[C@H](O)[C@H]3O)c3ccccc32)c(OC)c1 [Aldol™ 470 beta-D-galactoside]
Color of tube [2]: No color | Fluorescence of tube [2]: No fluorescence

COc1ccc(-c2c3n(c4ccccc24)-c2ccccc2C3=O)c(OC)c1 [Aldol™ 470 dye]
Fluorescence of imprint on LDPE film ([4]; After soaking for 18 h in ethanol): No fluorescence | Fluorescence color ([5]; Acetone): Green | Fluorescence intensity ([5]; Acetone): Strong | Fluorescence color ([5]; Ethanol): orange | Fluorescence color ([5]; Mineral oil): Green | Fluorescence intensity ([5]; Mineral oil): Medium | Fluorescence color ([5]; Paraffin oil): Green | Fluorescence intensity ([5]; Paraffin oil): Medium | Fluorescence intensity ([5]; Silicon oil): Weak | Fluorescence of PP tubes and PE pellets after 90° C. for 5 hours versus 24 hours at 37° C. or 22° C. [6]: much stronger

COc1ccc(C(=O)c2ccccc2-n2cc(OP(=O)(O)O)c3ccccc32)c(OC)c1 [Aldol™ 470 phosphate]
Fluorescence or coloration of spot of alpha-amylase (negative control) [7]: No fluorescence or coloration

Cn1cccc1C(=O)c1ccccc1-n1cc(O[C@@H]2O[C@H](CO)[C@H](O)[C@H](O)[C@H]2O)c2ccc(Cl)cc21 [Aldol™ 495 beta-D-galactoside]
Fluorescence of PP tube under UV light (366 nm) (E. coli [8]; E. coli, 0.4 mM in peptone broth, 16 h incubation): Strong green | Fluorescence of glass tube (E. coli [8]; E. coli, 0.4 mM in peptone broth, glass test tubes): no fluorescence | Fluorescence of PP tube under UV light (366 nm) (E. coli [8]; E. coli, after autoclaving and emptying tube): Strong green | Fluorescence of PP tube under UV light (366 nm) (E. coli [8]; E. coli, after washing in dish-washer): Strong green | Stability under autoclaving conditions (E. coli [8]; in the medium tested): stable under autoclaving conditions | Color of tube [2]: No color | Fluorescence of tube [2]: No fluorescence | Fluorescence of E. coli colonies (E. coli [3]): No fluorescence | Color under white light ([9]; 0.5 mM, pH 7.3, glass, polystyrene and polypropylene tubes with beta-galactosidase): red-brown precipitate | Time until new polypropylene tube started to fluoresce after transfer of content ([9]; content of fluorescent PP tube transferred into new PP tube): around 10 minutes | Fluorescence of PP tube under UV light (366 nm) (S. enteritidis [10]; 0.4 mM in peptone broth, 16 h incubation): No fluorescence | Fluorescence of glass tube (S. enteritidis [10]; 0.4 mM in peptone broth, glass test tubes): no fluorescence | Fluorescence of PP tube under UV light (366 nm) (S. enteritidis [10]; after autoclaving and emptying tube): No fluorescence | Fluorescence of PP tube under UV light (366 nm) (S. enteritidis [10]; after washing in dish-washer): No fluorescence

Cn1cccc1-c1c2n(c3ccccc13)-c1cc(Cl)ccc1C2=O [Aldol™ 495 dye]
Emission maximum [11]: 510 nm | Optimal excitation [11]: 310 nm | Fluorescence intensity ([5]; Acetone): Strong | Fluorescence color ([5]; Mineral oil): Green | Fluorescence color ([5]; Paraffin oil): Green | Fluorescence intensity ([5]; Silicon oil): Medium | Fluorescence color ([5]; Water): None | Fluorescence intensity ([5]; Water): None | Fluorescence of PP tubes and PE pellets after 90° C. for 5 hours versus 24 hours at 37° C. or 22° C. [6]: much stronger | Fluorescence of PP tubes and PE pellets, comparison between dyes [6]: more fluorescence than Aldol™ 515 dye

CN(C)c1ccc(-c2c3n(c4ccccc24)-c2ccccc2C3=O)cc1 [Aldol™ 515 dye]
Stability of stamping on LDPE ([4]; under the conditions tested, compared with the other dyes): most stable | Fluorescence color ([5]; Acetone): Red | Fluorescence intensity ([5]; Acetone): Medium | Fluorescence color ([5]; Ethanol): Red | Fluorescence intensity ([5]; Ethanol): Weak | Fluorescence color ([5]; Mineral oil): Yellow | Fluorescence color ([5]; Silicon oil): Red | Fluorescence color ([5]; Water): Red | Fluorescence of PP tubes and PE pellets after 90° C. for 5 hours versus 24 hours at 37° C. or 22° C. [6]: much stronger | Fluorescence of PP tubes and PE pellets, comparison between dyes [6]: more fluorescence than Aldol™ 518 dye and Aldol™ 470 dye

CN(C)c1ccc(C(=O)c2ccccc2-n2cc(O[C@@H]3O[C@H](CO)[C@H](O)[C@H](O)[C@H]3O)c3ccc(Cl)cc32)cc1 [Aldol™ 518 beta-D-galactoside]
Color (E. coli [12]; [14]): Red | Color (E. coli [12]; [15]): Red | Color (E. coli [12]; [16]): Red | Color (E. coli [12]; [17]): Red | Color (E. coli [12]; [18]): Red | Color (E. coli [12]; [19]): Red | Color (E. coli [12]; [20]): Red | Color (E. coli [12]; [21]): Red | Color (E. coli [12]; [22]): Red | Color (S. enteritidis [13]; [14]): Beige | Color (S. enteritidis [13]; [15]): Beige | Color (S. enteritidis [13]; [16]): Beige | Color (S. enteritidis [13]; [17]): Beige | Color (S. enteritidis [13]; [18]): Beige | Color (S. enteritidis [13]; [19]): Beige | Color (S. enteritidis [13]; [20]): Beige | Color (S. enteritidis [13]; [21]): Beige | Color (S. enteritidis [13]; [22]): Beige | Color of tube [2]: No color | Fluorescence of tube [2]: No fluorescence

CN(C)c1ccc(-c2c3n(c4ccccc24)-c2cc(Cl)ccc2C3=O)cc1 [Aldol™ 518 dye]
Fluorescence of PP tubes and PE pellets after 90° C. for 5 hours versus 24 hours at 37° C. or 22° C. [6]: much stronger
